Experimental data from patent US7419669B2, “Peptide epitopes common to antigens of the same multigene family” (Institut Gustave Roussy, priority 2002, dated 2008).
Where no end group is shown, it is not given here.

Key:
HLA-A*0201 = target: T1, HLA-A*0201 (Homo sapiens, UniProt P04439, D140Y/D185E/D98H/E176V/E277Q/G131W/G231S/I119V/I121R/I166T/I218V/L300P/L318F/N151K/N90K/P208A/P217A/Q86G/Q94H/R138H/R169H/T345S); experiment: Relative affinity (RA) of peptides for HLA-A*0201 on T2 cells, flow cytometry with BB7.2; type: binding; conditions: for affinity for HLA-A*0201 (in words): low affinity = RA>5 and DC50<2 hours; for RA (relative affinity for HLA-A*0201): ratio of peptide concentration to reference peptide (HIVpol 589) concentration inducing 20% of fluorescence obtained with 100 μM reference, T2 cells, lower RA = stronger binding
T1 construct: prevent the expression at their surface of newly synthesized HLA-A*0201 molecules; endogenous in cells; host or cells: human T2 cells (TAP-deficient)
Experimental: The affinity of the selected peptides for HLA-A*0201 was defined by two parameters: the relative affinity (RA); which reflects the ability of the peptides to bind to HLA-A*0201, and the rate of dissociation of the HLA-A*0201/peptide complexes (DC50), which reflects their stability. The peptides with high affinity (RA<5 and DC50>2 hours) are potentially immunogenic, unlike the peptides with low affinity (RA>5 and DC50<2 hours).
Human T2 cells (FIRAT et al., Eur. J. Immunol., 29, 3112, 1999) (3×10^5 cells/ml), which are deficient in TAP transporters, are incubated at 37° C. for 16 hours with various concentrations (100 μM, 10 μM, 1 μM, 0.1 μM) of each test peptide in serum-free RPMI 1640 medium supplemented with 100 ng/ml of human β2-microglobulin. Next, they are washed twice and labeled with the monoclonal antibody BB7.2 (PARHAM et al., Hum. Immunol., 3, 4, 277-299, 1981) which is specific for the HLA-A*0201 molecule, and then with a goat anti-mouse Ig antibody coupled to fluorescein isothiocyanate (FITC).
The cells are then analyzed by flow cytometry. For each concentration of peptide, the specific HLA-A*0201 fluorescence is calculated as a percentage of the fluorescence obtained with 100 μM of a reference peptide (HIVpol 589; […] (SEQ ID No: 1)). The relative affinity (RA) is defined as the ratio of the concentration of each peptide that induces 20% of the fluorescence obtained with 100 μM of the reference peptide, to the concentration of the reference peptide that induces 20% of the fluorescence obtained with 100 μM of said reference peptide. The lower the relative affinity, the stronger the binding of the peptide to HLA-A*0201. The mean RA for each peptide is determined from at least three independent experiments. In all the experiments, 20% of the maximum fluorescence was obtained for 1 to 3 μM of the reference peptide.
The relative affinity (RA) of the selected variant peptides for HLA-A*0201 was measured as described in example 1.

RMAS-HHD target cells = experiment: Cytotoxicity assay with CTL lines 1R5 and 2R5 (HHD mice immunized with p911Y1V9) on peptide-loaded RMAS-HHD target cells; type: cell-based, murine; conditions: for CTL response (specific lysis) to RMAS-HHD cells loaded with the peptide: CTL lines 1R5 and 2R5 induced with p911Y1V9, 10 μM peptide
Experimental: Two CTL lines, called 1R5 and 2R5, were established from the spleen cells of HHD mice immunized with the variant peptide p911Y1V9, according to the same protocol as that described in example 1.
Cytotoxicity assays were carried out as described in example 2. For this, RMAS-HHD target cells loaded with 10 μM of the test peptides (variant or native peptides) were incubated in the presence of cells of the two CTL lines 1R5 and 2R5.
The percentage specific lysis values observed in the presence of the 1R5 (□) and 2R5 (▪) lines and for the various peptides tested are given in FIG. 5.

RMAS-HHD cells = experiment: Intracellular IFNγ production of CTL line 1R5 with peptide-loaded RMAS-HHD cells; type: cell-based, murine; conditions: for response of CD8+ cells of CTL line 1R5 to RMAS-HHD cells loaded with the peptide: intracellular IFNγ production
Experimental: The response of the cells of the CTL line 1R5 with respect to the RMAS-HHD cells loaded with the various peptides was also evaluated by assaying the intracellular IFNγ production.
For this, the cells of the CTL line 1R5 are incubated in the presence of RMAS-HHD cells loaded with the variant peptide p911Y1V9, the native peptides HER1 911, HER2,3 911 or HER4 911, or an irrelevant peptide, and in the presence of 20 μg/ml of Brefeldine-A (Sigma). After 6 hours, the cells are washed, labeled with an anti-CD8 antibody conjugated to r-phycoerythrin, and incubated in PBS for 25 min at 4° C. They are then again washed, before being fixed with a 4% paraformaldehyde solution. The cells are then permeabilized with saponin (Sigma) at 0.2% in PBS, and labeled with an anti-IFNγ monoclonal antibody conjugated to allophycocyanin (Pharmingen).
(§1) The cells are then analyzed by flow cytometry (FACSCalibur™ (Becton Dickinson) and CellQuest™ software).

[1] = system: CD8+ cells from normal donors; experiment: Induction of specific human CTLs in vitro from PBMCs of normal donors with p248V9, intracellular IFNγ production; type: cell-based; conditions: intracellular IFNγ production
Experimental: The ability of p248V9 to induce CTLs in vitro using peripheral blood mononuclear cells (PBMCs) from normal donors was tested as follows.
The PBMCs are obtained, from blood samples taken by leukocytapheresis on normal donors, after centrifugation at 2000 rpm for 20 min on a Ficoll/Hypaque (Amersham) gradient. After 3 washes in 0.9% NaCl, they are resuspended in complete medium (RPMI 1640 supplemented with 10% of heat-inactivated human AB serum, 40 μg/ml of gentamicin (Panpharma) and […] of L-glutamine (Gibco)), and incubated at 37° C. for 2 hours. After incubation, the non-adherent cells are removed. The adherent cells are differentiated into dendritic cells by culturing in a Teflon bag in a proportion of 3×10^6 cells/ml in complete medium supplemented with 500 IU/ml of GM-CSF (R & D Systems) and 500 IU/ml of IL-4 (R & D Systems). On the seventh day, maturing agents (100 ng/ml of polyI:C and 2 μg/ml of anti-CD40 antibody) are added to the culture. After 24 hours, the mature dendritic cells are loaded with the peptide p248V9 by incubation for 2 hours with 10 μM of peptide in the presence of 5 μg/ml of β2-microglobulin, and then irradiated at 3500 rads; they are then washed in order to remove the free peptide. CD8+ cells are isolated from the non-adherent cells by means of microbeads coupled to an anti-CD8 antibody (Miltenyi Biotec).
2×10^5 CD8+ cells are stimulated with 2×10^4 dendritic cells loaded with the peptide, in complete medium supplemented with 1000 IU/ml of IL-6 and 5 IU/ml of IL-12 in a final volume of 100 μl/well in a 96-well plate. From the seventh day, the cultures are stimulated in vitro each week with the dendritic cells loaded with the peptide, in the presence of 20 IU/ml of IL-2 and 10 ng/ml of IL-7. After the third restimulation, the CD8+ cells are collected and stimulated with EBV-transformed HLA-A*0201 allogenic B cells, in a 1/2 ratio, in the presence of 10 μM of peptide, for 16 hours.
The IFNγ-producing CD8+ cells are purified using a commercial kit (IFNγ secretion assay-cell enrichment and detection kit, Miltenyi Biotech). The cells thus purified are cultured for one week in complete medium supplemented with 20 IU/ml of IL-2 and 10 ng/ml of IL-7.
The response of these CD8+ cells to T2 cells loaded with one of the peptides p248V9, p248G9 or p248D9, or with a irrelevant peptide (HIVgag76), or to HLA-A*0201+MAGE-A+ tumor cells (M44 and M113) or HLA-A*0201+MAGE-A^− tumor cells (Caco-2), is evaluated by assaying the intracellular IFNγ production.
The CD8+ cells are incubated with the cells of the tumor line tested, in the presence of 20 μg/ml of Brefeldine-A (Sigma). […]
as §1

HHD transgenic mice = experiment: Induction of specific CTLs in HHD transgenic mice by immunization with variant MAGE-A peptides; 51Cr cytotoxicity on peptide-loaded RMAS-HHD targets; type: in vivo; conditions: for recognition of RMAS-HHD targets loaded with the native peptide by CTLs induced with the corresponding variant: native peptide loaded on targets
Experimental: The immunogenicity of the variant peptides p174Y1V10, p262L2 and p248V9 was evaluated by generation of CTLs on HHD transgenic mice (PASCOLO et al., J. Exp. Med., 185, 2043, 1997). These mice are β2m−/−, D^b−/− and express an HLA-A*0201 single chain made up of the α1 and α2 domains of HLA-A*0201 and the α3 and intracellular domains of D^b, linked via its N-terminal to the C-terminal of human β2-microglobulin, via a peptide of 15 amino acids.
The HHD mice are given a subcutaneous injection at the base of the tail with 100 μg of each variant peptide to be tested, emulsified in Freund's incomplete adjuvant, in the presence of 140 μg of a T-helper epitope derived from the HBV “core” antigen (128-140, sequence […]).
After 11 days, spleen cells taken from the mice (5×10^7 cells in 10 ml) are stimulated in vitro with the test peptide (10 μM). On the 6th day of culture, the populations which respond are tested in order to determine a specific cytotoxicity. The cells which respond are restimulated in vitro at one-week intervals with 2×10^7 irradiated (3000 rads) HHD spleen cells and 1 to 0.1 μM of peptide in the presence of 50 IU/ml of recombinant IL2 (Proleukin, Chiron Corp).
Cytotoxicity assays are carried out 6 days after the final stimulation.
RMAS-HHD cells are used as targets to study the cytotoxicity. The cells are obtained by transfection of murine RMAS cells with the HHD construct as described by PASCOLO et al. (J. Exp. Med., 185, 2043, 1997).
These target cells are labeled with 100 μCi of ^51Cr for 90 minutes, and then washed three times and plated out in round-bottomed 96-well plates (3×10^3 cells/well in 100 μl of RPMI 1640+3% of fetal calf serum). They are loaded with various concentrations of test peptide (variant, native peptide, or irrelevant control peptide), at 37° C. for 90 minutes.
Next, 100 μl of the effector cells (effector cell/target cell ratio=40/1) are added to the wells and the plates are incubated at 37° C. for 4 hours. After incubation, 100 μl of supernatant are collected and the radioactivity is measured in a γ-counter.
The percentage of specific lysis is calculated by means of the formula: [(experimental ^51Cr release−spontaneous ^51Cr release)/(maximum ^51Cr release−spontaneous ^51Cr release)]×100. In all the experiments, the spontaneous release is less than 20% of the maximum release induced with 3N HCl.

Sequence	CTL response (specific lysis) to RMAS-HHD cells loaded with the peptide (RMAS-HHD target cells)	response of CD8+ cells of CTL line 1R5 to RMAS-HHD cells loaded with the peptide (RMAS-HHD cells)	RA (relative affinity for HLA-A*0201) (HLA-A*0201)	further results
CLGLSYDGLL [p174]				affinity for HLA-A*0201 (in words) (HLA-A*0201): low affinity
TIWELMTFGG (listed as Homo sapiens) [HER4 911]	induce a CTL response	response of the CD8+ cells of the CTL line 1R5		
TVWELMTFGA (listed as Homo sapiens) [HER2,3 911]	induce a CTL response	response of the CD8+ cells of the CTL line 1R5		
TVWELMTFGS (listed as Homo sapiens) [HER1 911]	induce a CTL response	response of the CD8+ cells of the CTL line 1R5		
YICTIDVYMV (not fully specified) [p945Y1V9]			>100	
YLAARNVLV (not fully specified) [p845Y]			>100	
YLEYRQVPD (listed as Homo sapiens) [p248D9]				response of p248V9-induced human CD8+ cells to T2 cells loaded with the peptide [1]: a response of the CD8+ cells; affinity for HLA-A*0201 (in words) (HLA-A*0201): low affinity; recognition of RMAS-HHD targets loaded with the native peptide by CTLs induced with the corresponding variant (HHD transgenic mice): also against the two native peptides
YLEYRQVPG (listed as Homo sapiens) [p248G9]				response of p248V9-induced human CD8+ cells to T2 cells loaded with the peptide [1]: a response of the CD8+ cells; affinity for HLA-A*0201 (in words) (HLA-A*0201): low affinity; recognition of RMAS-HHD targets loaded with the native peptide by CTLs induced with the corresponding variant (HHD transgenic mice): also against the two native peptides
YLFLWGPRA (not fully specified) [p262L2]				CTL response generated by immunization with the variant peptide (HHD transgenic mice; HHD mice, 100 μg s.c. in Freund's incomplete adjuvant, RMAS-HHD targets, effector/target 40/1): induces CTLs capable of recognizing this peptide, but not the native p262 peptide
YLLEKGERL (not fully specified) [p933Y]			>100	
YVKVLGSGV (not fully specified) [p722Y1V9]			>100	
YVWELMTFGV (not fully specified) [p911Y1V9]	induce a CTL response	response of the CD8+ cells of the CTL line 1R5		CTLs generated by the variant peptide, killing of loaded RMAS-HHD target cells (RMAS-HHD target cells; CTL lines 1R5 and 2R5, targets loaded with 10 μM peptide): generates CTLs which kill the RMAS-HHD target cells loaded with the variant peptide p911Y1V9, but also with the native peptides HER1 911, HER2,3 911 or HER4 911; CTLs induced by the variant peptide, recognition by IFNγ production (RMAS-HHD cells; CTL line 1R5): induces CTLs capable of recognizing this variant peptide, but also the native peptides from which it is derived
YVWSYGVTV (not fully specified) [p904Y]			>100	
